Our source for the IC50 values is patent US9115092B2, “Substituted quinazoline and pyrido-pyrimidine derivatives” (Asana Biosciences, LLC, priority 2010, dated 2015).

In assay [1] the target is T1, PI3Kα (wild-type), P110/P85α (Homo sapiens, UniProt P42336).
T1 construct: made in house; host or cells: SF9 insect cells
Kind of assay: PI3 Kinase TR-FRET assay, PI3Kα (wild-type). The class given is biochemical. The protocol:
The ability of compounds of the invention to inhibit PI3K activity was determined in a homogeneous TR-FRET assay using a PI3K assay kit (Millipore, USA; cat #33-016) according to manufacturer's instructions. PI3-Kinases (isoforms α, β, γ and δ) catalyze the phosphorylation of phosphatidylinositol, PIP2 to PIP3 in the presence of ATP and Mg^2+. The PIP3 product is detected by displacement of biotin-PIP3 from an energy transfer complex consisting of Europium labeled anti-GST monoclonal antibody, a GST-tagged PH domain, biotinylated PIP3 and Streptavidin-APC. Excitation of Europium in the complex results in an energy transfer to the APC and a fluorescence emission at 665 nm. The PIP3 product displaces biotin-PIP3 from the complex resulting in a loss of energy transfer and thus a decrease in signal.
To test for the ability of compounds to inhibit the activity of PI3Kα (wild-type), exemplary compounds of formula (I) were dissolved in DMSO and directly distributed into 384-well plates at a volume of 0.5 μL. 14.5 μL of P110/P85α/PIP2 mixture in buffer (obtained from the Millipore kit) containing MgCl2 (40 mM) and DTT (5 mM) was added to compound wells and incubated for 60 min at room temperature. P110/P85α was expressed in SF9 insect cells and purified nickel column extraction. Five ng of wild-type P110/P85α was used in the assay. The kinase reaction was started by the addition of ATP. The assay concentrations of both PIP2 and ATP were 10 μM. The reaction mixture was incubated for 30 min at room temperature and was terminated by the addition of stop mix and detection mix. Fluorescence was measured at 615 and 665 nm upon excitation at 340 nm in a Victor™ V5 fluorometer (Perkin Elmer, USA). The fluorescence emission ratio at 665 to 615 nm, proportional to the kinase activity, was plotted against the compound concentration to generate dose-response curves and IC50 values were determined using GraphPad Prism® 5 software.
(TR-FRET usually uses a lanthanide donor and a delayed reading to cut background.)

Another assay has as its target T2, mTOR kinase (Homo sapiens, UniProt P42345).
T2 construct: purchased Millipore, USA
Kind of assay: mTOR kinase TR-FRET assay. The class given is biochemical. The settings on record: read-out: mTO R. As to the method:
Compound inhibition for mTOR kinase was determined in a homogeneous TR-FRET assay using the Lance® ULight-p70 S6K (Thr 389) peptide (obtained from Perkin-Elmer). The ULight™-labeled synthetic peptide contains the amino acid residues surrounding Thr389 of human p70 S6K. The ULight-p70 S6K peptide is phosphorylated at Thr389 by mTOR. Phosphorylation motif: LGFTYVAP as substrate.
The compound dilution was carried out in 100% DMSO followed by a buffer dilution. The reaction buffer was HEPES (50 mM pH 7.5), EGTA (1 mM), MnCl2 (3 mM). Test compounds at various concentrations were pre-incubated with mTOR (Millipore, USA; 5 ng) for 60 min, and then the Lance® ULight-p70 S6K (Thr 389) peptide (50 nM) was added along with ATP (20 μM). After incubating the reaction mixture for 60 min at room temperature, the kinase reaction was terminated by the addition of EDTA (10 mM) followed by the addition of detection mix, i.e., 1 nM Eu-labeled anti-phospho-substrate antibody (Perkin Elmer, USA). The fluorescence emission at […] was measured upon excitation at 340 nm. IC50 values were subsequently determined using a sigmoidal dose-response curve (variable slope) in GraphPad Prism® 5 software.
Compounds of formula (I) caused inhibition of mTOR kinase activity as determined by this assay.

Molecules are shown by their SMILES.

T1 sequence (P42336 whole entry): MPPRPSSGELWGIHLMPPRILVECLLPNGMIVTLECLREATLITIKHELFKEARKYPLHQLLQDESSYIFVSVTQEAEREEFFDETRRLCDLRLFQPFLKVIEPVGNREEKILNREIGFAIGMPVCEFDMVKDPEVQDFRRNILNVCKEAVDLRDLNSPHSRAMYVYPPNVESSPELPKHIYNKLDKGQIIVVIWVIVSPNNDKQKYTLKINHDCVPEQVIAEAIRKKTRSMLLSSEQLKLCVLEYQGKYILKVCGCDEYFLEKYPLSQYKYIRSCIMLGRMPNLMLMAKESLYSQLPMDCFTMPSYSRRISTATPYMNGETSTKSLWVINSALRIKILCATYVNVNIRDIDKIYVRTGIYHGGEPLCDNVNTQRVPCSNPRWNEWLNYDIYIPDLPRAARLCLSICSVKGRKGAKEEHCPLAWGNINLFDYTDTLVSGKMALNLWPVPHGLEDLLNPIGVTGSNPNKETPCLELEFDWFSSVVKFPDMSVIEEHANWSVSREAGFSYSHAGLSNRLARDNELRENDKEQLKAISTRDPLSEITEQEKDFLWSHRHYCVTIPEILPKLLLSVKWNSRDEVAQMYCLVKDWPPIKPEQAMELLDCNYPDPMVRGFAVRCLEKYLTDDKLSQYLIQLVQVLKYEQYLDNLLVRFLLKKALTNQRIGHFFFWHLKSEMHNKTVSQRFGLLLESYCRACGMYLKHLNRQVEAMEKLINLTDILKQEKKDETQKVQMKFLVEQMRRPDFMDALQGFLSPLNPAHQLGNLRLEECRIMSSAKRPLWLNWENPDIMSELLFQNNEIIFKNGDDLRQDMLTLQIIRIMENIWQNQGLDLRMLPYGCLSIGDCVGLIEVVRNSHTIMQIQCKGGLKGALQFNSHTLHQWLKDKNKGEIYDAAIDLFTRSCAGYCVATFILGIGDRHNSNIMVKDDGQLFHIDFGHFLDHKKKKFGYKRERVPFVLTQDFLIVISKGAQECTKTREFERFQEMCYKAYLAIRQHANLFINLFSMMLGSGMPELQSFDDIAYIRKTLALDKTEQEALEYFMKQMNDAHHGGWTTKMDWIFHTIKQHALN
T1 sequence (P27986 whole entry partner): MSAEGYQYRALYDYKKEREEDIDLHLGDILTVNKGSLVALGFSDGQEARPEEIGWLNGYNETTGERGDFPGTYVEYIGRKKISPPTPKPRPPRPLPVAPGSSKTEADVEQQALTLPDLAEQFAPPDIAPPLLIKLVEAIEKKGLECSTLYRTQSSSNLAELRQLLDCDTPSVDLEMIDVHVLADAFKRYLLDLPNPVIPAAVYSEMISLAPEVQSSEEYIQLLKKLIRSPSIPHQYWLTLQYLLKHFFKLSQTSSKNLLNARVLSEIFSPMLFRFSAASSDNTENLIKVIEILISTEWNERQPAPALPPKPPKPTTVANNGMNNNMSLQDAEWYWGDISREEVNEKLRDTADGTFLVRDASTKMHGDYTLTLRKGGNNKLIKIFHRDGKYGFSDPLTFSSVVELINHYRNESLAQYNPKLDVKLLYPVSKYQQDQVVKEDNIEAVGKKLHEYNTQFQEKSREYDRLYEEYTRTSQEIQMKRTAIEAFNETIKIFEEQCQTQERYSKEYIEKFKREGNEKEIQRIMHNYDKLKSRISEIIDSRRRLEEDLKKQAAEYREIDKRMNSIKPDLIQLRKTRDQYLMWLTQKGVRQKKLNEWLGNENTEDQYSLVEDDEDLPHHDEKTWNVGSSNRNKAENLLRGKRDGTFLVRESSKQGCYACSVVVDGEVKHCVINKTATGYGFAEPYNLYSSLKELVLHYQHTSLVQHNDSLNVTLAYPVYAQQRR

Consider `Cc1noc(C)c1-c1ccc2c(N3CCOCC3)nc(-c3ccc(NC(=O)Nc4ccc(C(=O)N5CCC(N(C)C)C5)cc4)c(F)c3)nc2c1` (stereo in doubt) [Example 221, (S)-1-(4-(3-(dimethylamino)pyrrolidine-1-carbonyl)phenyl)-3-(4-(7-(3,5-dimethylisoxazol-4-yl)-4-morpholino-quinazolin-2-yl)-2-fluorophenyl)urea], for which the IC50 (in assay [1]; on mTOR kinase) was 50 to 200 nM each time.

`CN(C)CCNC(=O)c1ccc2c(N3CCOCC3)nc(-c3ccc(NC(=O)Nc4ccc(C(=O)N(C)C)cc4)cc3)nc2c1` [Example 7, 2-[4-{3-(4-Dimethycarbamoyl-phenyl)-Ureido]-phenyl}-4-morpholin-4-yl-quinazoline-7-carboxylic acid (2-dimethylamino-ethyl)-amide]: the figures for the IC50 (in assay [1]; on mTOR kinase) were 50 to 200 nM and less than 50 nM, respectively.

In the case of `Cc1ccc(-c2ccc3c(N4CCOCC4)nc(-c4ccc(NC(=O)Nc5ccc(C(=O)N(C)C)cc5)c(F)c4)nc3c2)o1` [Example 8, 4-(3-{2-Fluoro-4-[7-(5-methyl-furan-2-yl)-4-morpholin-4-yl-quinazolin-2-yl]-phenyl}ureido)dimethyl-benzamide], the IC50 in assay [1] lay within 201 to 10000 nM; on mTOR kinase, 50 to 200 nM.

Regarding `CN(C)C(=O)c1ccc(NC(=O)Nc2ccc(-c3nc(N4CCOCC4)c4ccc(-c5ccc(C(=O)O)o5)cc4n3)cc2)cc1` [Example 10, 5-(2-(4-(3-(4-(dimethylcarbamoyl)phenyl)ureido)phenyl)-4-morpholino-quinazolin-7-yl)furan-2-carboxylic acid], the IC50 (in assay [1]; at mTOR kinase) was less than 50 nM throughout.

`CN1CCN(C(=O)c2ccc(-c3ccc4c(N5CCOCC5)nc(-c5ccc(NC(=O)Nc6ccc(C(=O)N(C)C)cc6)cc5)nc4c3)o2)CC1` [Example 11, N,N-dimethyl-4-(3-(4-(7-(5-(4-methylpiperazine-1-carbonyl)furan-2-yl)-4-morpholino-quinazolin-2-yl)phenyl)ureido)-benzamide]: the IC50 (in assay [1]; at mTOR kinase) was less than 50 nM in each case.

`CN(C)C(=O)c1ccc(NC(=O)Nc2ccc(-c3nc(N4CCOCC4)c4ccc(-c5ccc(C#N)o5)cc4n3)c(F)c2)cc1` [Example 12, 4-(3-(4-(7-(5-cyanofuran-2-yl)-4-morpholino-quinazolin-2-yl)-3-fluorophenyl)ureido)-N,N-dimethyl-benzamide]: the IC50 (in assay [1]; on mTOR kinase) was less than 50 nM each time.

`CC(=O)c1ccc(-c2ccc3c(N4CCOCC4)nc(-c4ccc(NC(=O)Nc5ccc(C(=O)N(C)C)c(F)c5)cc4)nc3c2)o1` [Example 13, 4-(3-(4-(7-(5-acetylfuran-2-yl)-4-morpholino-quinazolin-2-yl)phenyl)ureido)-2-fluoro-N,N-dimethyl-benzamide]: the IC50 (in assay [1]; at mTOR kinase) was less than 50 nM throughout.

Consider `CN(C)C(=O)c1ccc(NC(=O)Nc2ccc(-c3nc(N4CCOCC4)c4ncc(-c5cnn(C)c5)cc4n3)c(F)c2F)cc1` [Example 14, 4-(3-(2,3-difluoro-4-(7-(1-methyl-1H-pyrazol-4-yl)-4-morpholino-pyrido[3,2-d]pyrimidin-2-yl)phenyl)ureido)-N,N-dimethyl-benzamide], for which the IC50 (in assay [1]; at mTOR kinase) was less than 50 nM throughout.

With `CC(O)c1ccc(-c2cnc3c(N4CCOCC4)nc(-c4ccc(NC(=O)Nc5ccc(C(=O)N(C)C)cc5)c(F)c4)nc3c2)o1` (stereo not shown) [Example 15, 4-(3-(2-fluoro-4-(7-(5-(1-hydroxyethyl)furan-2-yl)-4-morpholino-pyrido[3,2-d]pyrimidin-2-yl)phenyl)ureido)-N,N-dimethyl-benzamide], the IC50 (in assay [1]; on mTOR kinase) was less than 50 nM in each case.

Consider `O=C(Nc1ccc(-c2nc(N3CCOCC3)c3ccc(-c4cccnc4F)cc3n2)cc1)Nc1ccc(N2CCCC2=O)cc1` [Example 292, 1-(4-(7-(2-fluoropyridin-3-yl)-4-morpholinoquinazolin-2-yl)phenyl)-3-(4-(2-oxopyrrolidin-1-yl)phenyl)urea], for which the IC50 at mTOR kinase was less than 50 nM.
